Source: patent US20230190761A1, “METHYLENE BLUE STABILIZED MRNA COMPOSITIONS” (ModernaTX, Inc., priority 2020, published 2023)
Where a name gives a salt, the structure may show the parent alone.

How the values were obtained:
Type in all cases: physicochemical
[1] = tested on: mRNA within LNP formulations; assay: Screen of molecular dyes on mRNA stability within LNP formulations (RP-HPLC); conditions: for Main Peak Purity after 4 days at 40° C. (%): 2 mM dye in mRNA-LNP, RP-HPLC, no value (—) = physically unstable, no reliable chromatographic result, interpreted as destabilizing; for stabilization effect on mRNA in LNP / Difference relative to No Dye: 2 mM dye, 4 days at 40° C.; for Difference relative to No Dye: main peak purity, ±4% interpreted as significant
Method: This example discusses the effects of various dye molecules on mRNA stability within LNP formulations. To evaluate the potential stabilization effects of dyes, LNP compositions were prepared containing 2 mM of one of 25 dyes. After incubation for 4 days at 40° C., main peak mRNA purity was measured by RP-HPLC. Variance within this study was estimated from three independent sample replicates with no dye (Sample IDs D0a, D0b and D0c as shown in Table 4) or with 2 mM methylene blue (Sample IDs D1a, D1b and D1c as shown in Table 4). […] The main peak purity measured in each mRNA-LNP formulation, as well as its difference relative to the no dye controls is shown in Table 4. Positive differences relative to no dye represent improvements in mRNA stability, and negative differences represent worsened mRNA stability.

[2] = tested on: mRNA-LNP; assay: Conventional antioxidants versus methylene blue on mRNA-LNP stability; conditions: 2 mM KDS, 5 mM KDS or 5 mM methionine, presence or absence of 2 mM methylene blue
Method: This example discusses the effects of conventional pharmaceutical antioxidants on mRNA stability. To evaluate the effects conventional pharmaceutical antioxidants might have on mRNA stability relative to methylene blue, a direct comparative study was performed between methionine, potassium metabisulfite (KDS) and methylene blue. mRNA purity was measured after incubation of mRNA-LNP compositions with no additive, or with 2 mM KDS, 5 mM KDS, or 5 mM methionine, in the presence or absence of 2 mM methylene blue.

[3] = tested on: lipid nanoparticles (LNP); assay: Permeation of phenothiazinium dyes into LNP and binding to encapsulated mRNA; conditions: optical spectroscopic studies, Cryo-EM, DLS, isothermal titration calorimetry
Excerpt: This example describes phenothiazinium dyes which interact with mRNA and their impact on LNP formulations. […] These interpretations were made based on extensive optical spectroscopic studies, Cryo-EM, dynamic light scattering (DLS) and isothermal titration calorimetry studies.

Compound	Main Peak Purity after 4 days at 40° C. (%) [1] [%]	stabilization effect on mRNA in LNP [1]	Difference relative to No Dye [1] [%]	stabilization effect on mRNA purity [2]	permeation of lipid nanoparticles and binding to encapsulated mRNA [3]
Leucomethylene Blue (mesylate)	89.46	stabilization effects similar to that of methylene blue	14	–	–
O=S([O-])S(=O)(=O)[O-].[K+].[K+] [KDS, potassium metabisulfite]	–	–	–	Neither KDS nor methionine showed any stabilization effect	–
CNc1ccc2nc3ccc(=[N+](C)C)cc-3sc2c1 [Azure B]	90.16	stabilization effects similar to that of methylene blue	15	–	can permeate lipid nanoparticles (LNP) and bind to encapsulated mRNA without altering the gross structure of the LNP
CCN(CC)c1ccc2nc3c4ccccc4c(=N)cc-3oc2c1 [Nile Blue A]	70.75	–	−4	–	–
Bromophenol Blue sodium salt	35.53	–	−39	–	–
O=[N+]([O-])[O-].[Ag+] [Silver nitrate (0.1 N), Silver nitrate]	77.90	–	3	–	–
Cc1cc2nc3ccc(N(C)C)cc3[s+]c2cc1N [Toluidine Blue O]	74.66	–	0	–	–
Cc1cc2nc3ccc(=[N+](C)C)cc-3[nH]c2cc1N [Neutral Red]	59.34	–	−16	–	–
Oc1cc2c(cc1O)[C@@H]1c3ccc(O)c(O)c3OC[C@]1(O)C2 [Hematoxylin]	39.82	–	−35	–	–
O=C(O)c1ccccc1-c1c2cc([N+](=O)[O-])c(=O)c(Br)c-2oc2c(Br)c(O)c([N+](=O)[O-])cc12 [Eosin B]	78.00	–	3	–	–
CN(C)c1ccc(C(=C2C=CC(=[N+](C)C)C=C2)c2ccc(N(C)C)cc2)cc1 [Crystal Violet]	24.79	–	−50	–	–
CCN(CC)c1ccc2nc3c4ccccc4c(=O)cc-3oc2c1 [Nile Red]	77.56	–	3	–	–
CN(C)c1ccc2cc3ccc(N(C)C)cc3nc2c1 [Acridine Orange hydrochloride hydrate]	69.92	–	−5	–	–
CN(C)c1ccc2nc3ccc(N)cc3[s+]c2c1 [Azure A chloride]	90.36	stabilization effects similar to that of methylene blue	15	–	can permeate lipid nanoparticles (LNP) and bind to encapsulated mRNA without altering the gross structure of the LNP
CSCC[C@H](N)C(=O)O [methionine]	–	–	–	Neither KDS nor methionine showed any stabilization effect	–
CCNc1cc2[s+]c3cc(NCC)c(C)cc3nc2cc1C [New methylene blue N]	68.61	–	−6	–	–
Cc1cc2nc3cc(C)c(N)cc3[n+](-c3ccccc3)c2cc1N [Safranin O]	89.14	stabilization effects similar to that of methylene blue	14	–	–
CN(C)c1ccc2cc3ccc(=[N+](C)C)cc-3oc2c1.[Cl-] [Pyronin Y]	68.68	–	−6	–	–
Cc1c(C(=O)O)c(O)cc2c1C(=O)c1c(O)c(C3O[C@H](CO)[C@@H](O)[C@H](O)[C@H]3O)c(O)c(O)c1C2=O (stereo in doubt) [Carmine]	74.27	–	−1	–	–
